Each structure is given as a SMILES string.

The experiment deals with T1, SIRT1 (Homo sapiens, UniProt Q96EB6).
T1 sequence (Q96EB6 1-747): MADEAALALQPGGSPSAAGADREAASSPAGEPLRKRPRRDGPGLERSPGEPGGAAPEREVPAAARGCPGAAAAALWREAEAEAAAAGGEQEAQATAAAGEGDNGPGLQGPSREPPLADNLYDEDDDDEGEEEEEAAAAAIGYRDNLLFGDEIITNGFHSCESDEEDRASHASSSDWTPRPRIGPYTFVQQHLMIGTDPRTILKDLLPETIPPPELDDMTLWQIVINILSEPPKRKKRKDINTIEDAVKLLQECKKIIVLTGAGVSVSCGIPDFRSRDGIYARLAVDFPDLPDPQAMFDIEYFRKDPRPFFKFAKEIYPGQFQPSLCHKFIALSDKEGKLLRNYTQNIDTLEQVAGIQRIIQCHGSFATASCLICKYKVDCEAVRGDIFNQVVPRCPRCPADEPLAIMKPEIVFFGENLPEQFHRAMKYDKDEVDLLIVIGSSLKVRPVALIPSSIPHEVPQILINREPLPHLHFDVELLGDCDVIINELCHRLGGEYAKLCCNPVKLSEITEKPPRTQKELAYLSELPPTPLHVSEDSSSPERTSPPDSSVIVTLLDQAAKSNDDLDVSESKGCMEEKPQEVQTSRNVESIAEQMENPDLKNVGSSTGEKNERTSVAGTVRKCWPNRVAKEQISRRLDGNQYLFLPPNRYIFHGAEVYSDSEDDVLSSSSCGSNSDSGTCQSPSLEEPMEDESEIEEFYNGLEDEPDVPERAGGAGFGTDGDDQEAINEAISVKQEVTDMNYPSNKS
The experiment in a line: Mass spectrometry based SIRT1 deacetylase activation assay (acetylated p53-derived peptide substrate). The conditions noted are these: 0.5 μM peptide substrate, 120 μM βNAD+, 10 nM SIRT1, 25 min at 25° C.; for EC1.5: read-out: EC1.5. The class given is biochemical.

Take `O=C(Nc1ccc(CN2CCCC2)cn1)c1cccc2[nH]c(-c3ccc(Cl)cc3C(F)(F)F)nc12` [Compound 542]: the “Fold Act. (percent maximum fold activation)” value is recorded as “A (Fold activation >200%)” and the EC1.5 was under 1000 nM.

Turning to `O=C(Nc1nccs1)c1cccc2[nH]c(-c3cc(F)cc(Cl)c3OCCN3CCOCC3)nc12` [Compound 543], the “Fold Act. (percent maximum fold activation)” value is recorded as “B (Fold Activation <200%)” and the EC1.5 is 1000 to 25000 nM.

Take `O=C(Nc1ccccn1)c1cccc2[nH]c(-c3cc(F)cc(Cl)c3OCCN3CCOCC3)nc12` [Compound 544]: the “Fold Act. (percent maximum fold activation)” value was “B (Fold Activation <200%)” and the EC1.5 lay within 1000 to 25000 nM.

Take `Cc1ccc(OCCN2CCOCC2)c(-c2nc3c(C(=O)Nc4nccs4)cccc3[nH]2)c1` [Compound 545]: the “Fold Act. (percent maximum fold activation)” value is “A (Fold activation >200%)” and the EC1.5 was under 1000 nM.

As for `Cc1ccc(OCCN2CCOCC2)c(-c2nc3c(C(=O)Nc4ccccn4)cccc3[nH]2)c1` [Compound 546], the “Fold Act. (percent maximum fold activation)” value is “A (Fold activation >200%)” and the EC1.5 was 1000 to 25000 nM.

Consider `CC(C)(C)c1ccc(OCCN2CCOCC2)c(-c2nc3c(C(=O)Nc4nccs4)cccc3[nH]2)c1` [Compound 547], for which the “Fold Act. (percent maximum fold activation)” value is listed as “B (Fold Activation <200%)” and the EC1.5 lay within 1000 to 25000 nM.

`CC(C)(C)c1ccc(OCCN2CCOCC2)c(-c2nc3c(C(=O)Nc4ccccn4)cccc3[nH]2)c1` [Compound 548]: the “Fold Act. (percent maximum fold activation)” value was “B (Fold Activation <200%)” and the EC1.5 is under 1000 nM.

In the case of `Cc1cnc(NC(=O)c2cccc3[nH]c(-c4ccc(N5CCOCC5)cc4C(F)(F)F)nc23)s1` [Compound 549], the “Fold Act. (percent maximum fold activation)” value was “A (Fold activation >200%)” and the EC1.5 is under 1000 nM.

On to `O=C(Nc1cccnn1)c1cccc2[nH]c(-c3ccc(N4CCOCC4)cc3C(F)(F)F)nc12` [Compound 550], for which the “Fold Act. (percent maximum fold activation)” value was “A (Fold activation >200%)” and the EC1.5 is under 1000 nM.

With `O=C(Nc1nccs1)c1cccc2[nH]c(-c3ccc(N4CCOCC4)cc3C(F)F)nc12` [Compound 551, 2-(2-(difluoromethyl)-4-morpholinophenyl)-N-(thiazol-2-yl)-1H-benzo[d]imidazole-4-carboxamide], the “Fold Act. (percent maximum fold activation)” value is given as “A (Fold activation >200%)” and the EC1.5 was under 1000 nM.

Turning to `Cc1cnc(NC(=O)c2cccc3[nH]c(-c4ccc(N5CCOCC5)cc4C(F)F)nc23)s1` [Compound 552], the “Fold Act. (percent maximum fold activation)” value is recorded as “A (Fold activation >200%)” and the EC1.5 was under 1000 nM.

`O=C(Nc1ccccn1)c1cccc2[nH]c(-c3ccc(N4CCOCC4)cc3C(F)F)nc12` [Compound 553]: the “Fold Act. (percent maximum fold activation)” value is listed as “A (Fold activation >200%)” and the EC1.5 is under 1000 nM.

With `O=C(Nc1cccnc1)c1cccc2[nH]c(-c3ccc(N4CCOCC4)cc3C(F)F)nc12` [Compound 554], the “Fold Act. (percent maximum fold activation)” value was “A (Fold activation >200%)” and the EC1.5 is under 1000 nM.

As to `O=C(Nc1cccnn1)c1cccc2[nH]c(-c3ccc(N4CCOCC4)cc3C(F)F)nc12` [Compound 555], the “Fold Act. (percent maximum fold activation)” value is listed as “A (Fold activation >200%)” and the EC1.5 is under 1000 nM.

For `O=C(Nc1nccs1)c1cccc2[nH]c(-c3ccc(OC[C@H](O)CO)cc3C(F)F)nc12` [Compound 556, (R)-2-(2-(difluoromethyl)-4-(2,3-dihydroxypropoxy)phenyl)-N-(thiazol-2-yl)-1H-benzo[d]imidazole-4-carboxamide], the “Fold Act. (percent maximum fold activation)” value is reported as “A (Fold activation >200%)” and the EC1.5 is under 1000 nM.

For the compound `Cc1cnc(NC(=O)c2cccc3[nH]c(-c4ccc(OCC(O)CO)cc4C(F)F)nc23)s1` (stereo not shown) [Compound 557], the “Fold Act. (percent maximum fold activation)” value is “A (Fold activation >200%)” and the EC1.5 was under 1000 nM.

Take `O=C(Nc1ccccn1)c1cccc2[nH]c(-c3ccc(OCC(O)CO)cc3C(F)F)nc12` (stereo not shown) [Compound 558]: the “Fold Act. (percent maximum fold activation)” value is on record as “A (Fold activation >200%)” and the EC1.5 is under 1000 nM.

Regarding `O=C(Nc1nccs1)c1cccc2[nH]c(-c3ccc(F)cc3C(F)F)nc12` [Compound 559, 2-(2-(difluoromethyl)-4-fluorophenyl)-N-(thiazol-2-yl)-1H-benzo[d]imidazole-4-carboxamide], the “Fold Act. (percent maximum fold activation)” value was “A (Fold activation >200%)” and the EC1.5 is under 1000 nM.

In the case of `Cc1cnc(NC(=O)c2cccc3[nH]c(-c4ccc(F)cc4C(F)F)nc23)s1` [Compound 560], the “Fold Act. (percent maximum fold activation)” value was “A (Fold activation >200%)” and the EC1.5 was under 1000 nM.

Consider `O=C(Nc1ccccn1)c1cccc2[nH]c(-c3ccc(F)cc3C(F)F)nc12` [Compound 561], for which the “Fold Act. (percent maximum fold activation)” value was “A (Fold activation >200%)” and the EC1.5 is under 1000 nM.

As for `O=C(Nc1nccs1)c1cccc2[nH]c(-c3ccc(Cl)cc3C(F)F)nc12` [Compound 562], the “Fold Act. (percent maximum fold activation)” value is recorded as “A (Fold activation >200%)” and the EC1.5 was under 1000 nM.

For `Cc1cnc(NC(=O)c2cccc3[nH]c(-c4ccc(Cl)cc4C(F)F)nc23)s1` [Compound 563], the “Fold Act. (percent maximum fold activation)” value is on record as “A (Fold activation >200%)” and the EC1.5 was under 1000 nM.

In the case of `O=C(Nc1ccccn1)c1cccc2[nH]c(-c3ccc(Cl)cc3C(F)F)nc12` [Compound 564], the “Fold Act. (percent maximum fold activation)” value is “A (Fold activation >200%)” and the EC1.5 is 1000 to 25000 nM.

Take `O=C1COc2ccc(-c3nc4c(C(=O)Nc5ccccn5)cccc4[nH]3)cc2N1` [Compound 565]: the “Fold Act. (percent maximum fold activation)” value was “B (Fold Activation <200%)” and the EC1.5 is 1000 to 25000 nM.

For `O=C(Nc1cccnc1)c1cccc2[nH]c(-c3cccc(OC4CCNCC4)c3)nc12` [Compound 567], the “Fold Act. (percent maximum fold activation)” value is “A (Fold activation >200%)” and the EC1.5 was under 1000 nM.

As for `O=C(Nc1cccnc1)c1cccc2[nH]c(-c3ccnc(N4CCCC4)c3)nc12` [Compound 568], the “Fold Act. (percent maximum fold activation)” value is recorded as “B (Fold Activation <200%)” and the EC1.5 was over 25000 nM.

For the compound `CCCN1CCc2cc(-c3nc4c(C(=O)Nc5cccnc5)cccc4[nH]3)ccc21` [Compound 569], the “Fold Act. (percent maximum fold activation)” value is given as “A (Fold activation >200%)” and the EC1.5 was in the range of 1000 to 25000 nM.

As for `CCCN1CCc2cc(-c3nc4c(C(=O)Nc5ncc(C)s5)cccc4[nH]3)ccc21` [Compound 570], the “Fold Act. (percent maximum fold activation)” value is on record as “B (Fold Activation <200%)” and the EC1.5 is 1000 to 25000 nM.

Regarding `C[C@@H]1CN(c2ccc(-c3nc4c(C(=O)Nc5ccccn5)cccc4[nH]3)c(C(F)(F)F)c2)C[C@H](C)O1` [Compound 571], the “Fold Act. (percent maximum fold activation)” value is given as “A (Fold activation >200%)” and the EC1.5 is under 1000 nM.

`O=C(Nc1nccs1)c1cccc2[nH]c(-c3ccc(N4CCCC4)cc3C(F)(F)F)nc12` [Compound 572]: the “Fold Act. (percent maximum fold activation)” value is “A (Fold activation >200%)” and the EC1.5 fell in the range of 1000 to 25000 nM.

Regarding `O=C(Nc1cccnc1)c1cccc2[nH]c(-c3ccc(N4CCCC4)cc3C(F)(F)F)nc12` [Compound 573], the “Fold Act. (percent maximum fold activation)” value is given as “A (Fold activation >200%)” and the EC1.5 was under 1000 nM.

In the case of `O=C(Nc1cccnc1)c1cccc2[nH]c(-c3ccc(N4CC[C@H](F)C4)cc3C(F)(F)F)nc12` [Compound 574], the “Fold Act. (percent maximum fold activation)” value was “A (Fold activation >200%)” and the EC1.5 is under 1000 nM.

In the case of `O=C(Nc1cccnc1)c1cccc2[nH]c(-c3ccc(N4CC[C@@H](F)C4)cc3C(F)(F)F)nc12` [Compound 575], the “Fold Act. (percent maximum fold activation)” value is on record as “A (Fold activation >200%)” and the EC1.5 is under 1000 nM.

With `C[C@@H]1CN(c2cccc(-c3nc4c(C(=O)Nc5nccs5)cccc4[nH]3)c2)C[C@H](C)O1` [Compound 576, 2-(3-(2,6-dimethylmorpholino)phenyl)-N-(thiazol-2-yl)-1H-benzo[d]imidazole-4-carboxamide], the “Fold Act. (percent maximum fold activation)” value is “A (Fold activation >200%)” and the EC1.5 is under 1000 nM.

With `C[C@@H]1CN(c2cccc(-c3nc4c(C(=O)Nc5ccccn5)cccc4[nH]3)c2)C[C@H](C)O1` [Compound 577], the “Fold Act. (percent maximum fold activation)” value is “A (Fold activation >200%)” and the EC1.5 is under 1000 nM.

With `C[C@@H]1CN(CCOc2ccccc2-c2nc3c(C(=O)Nc4nccs4)cccc3[nH]2)C[C@H](C)O1` [Compound 578], the “Fold Act. (percent maximum fold activation)” value is on record as “B (Fold Activation <200%)” and the EC1.5 was in the range of 1000 to 25000 nM.

For the compound `O=C(Nc1nccs1)c1cccc2[nH]c(-c3ccccc3OCCN3CCC(F)(F)CC3)nc12` [Compound 579], the “Fold Act. (percent maximum fold activation)” value was “B (Fold Activation <200%)” and the EC1.5 is over 25000 nM.

As for `CC(C)(C)NCCOc1ccccc1-c1nc2c(C(=O)Nc3nccs3)cccc2[nH]1` [Compound 580], the “Fold Act. (percent maximum fold activation)” value is “A (Fold activation >200%)” and the EC1.5 lay in the range of 1000 to 25000 nM.

The record behind these values is patent US8846947B2, “Benzimidazoles and related analogs as sirtuin modulators” (GlaxoSmithKline LLC, priority 2008, dated 2014).
